≈ marks a conversion by molar mass, not a printed value.
Key:
Assay type in all cases: cell-based
[1] = tested on: Enterococcus faecium (EFM); experiment: MIC, two-fold agar dilution (CLSI), clinical isolates
Excerpt: (§1) 1. The invention adopts the two-fold agar dilution method recommended by the operating procedure of antimicrobial susceptibility testing set by American Clinical and Laboratory Standards Institute (CLSI) to determine the Minimum Inhibitory Concentration (MIC) of the test samples against the tested strains.

[2] = tested on: Enterococcus faecalis (EFA); experiment: as above
Excerpt: as §1

[3] = tested on: methicillin-resistant Staphylococcus epidermidis (MRSE); experiment: as above
Excerpt: as §1

[4] = tested on: Escherichia coli (including ESBLs, non-ESBLs); experiment: as above
Excerpt: as §1

[5] = tested on: methicillin-sensitive Staphylococcus epidermidis (MSSE); experiment: as above
Excerpt: as §1

[6] = tested on: Streptococcus pneoumoniae (SPN); experiment: as above
Excerpt: as §1

[7] = tested on: Moraxella catarrhalis (BCA); experiment: as above
Excerpt: as §1

[8] = tested on: methicillin-resistant Staphylococcus aureus (MRSA); experiment: as above
Excerpt: as §1

[9] = tested on: methicillin-sensitive Staphylococcus aureus (MSSA); experiment: as above
Excerpt: as §1

[10] = tested on: HCT-116 colorectal cancer cell line; experiment: CCK-8 proliferation inhibition; conditions: Homo sapiens, HCT-116, 72 h, concentration of 30 μM; 72 hours; CCK-8; read-out: HCT116 inhibition rate/%
Summary of the method: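 Viability read-out: 1:10 diluted CCK-8 after 72 h compound exposure at 37 °C, 5% CO2. Cells (2000/well, McCoy's 5A plus 10% newborn bovine serum) pre-cultured overnight; vehicle control 1‰ DMSO.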

Compound `O=CN(O)C[C@@H](CC1CCCC1)C(=O)N1CC2(CC2)C[C@H]1C(=O)Nc1cnccn1` [Example 26] has an MIC (anti-bacterial activity) ([1]; strain EFM 15-1) of 0.5 µg/mL (≈ 1.2 µM), an MIC (anti-bacterial activity) ([1]; strain EFM 15-2) of 0.5 µg/mL (≈ 1.2 µM) and an MIC (anti-bacterial activity) ([1]; strain EFM 15-3) of 0.25 µg/mL (≈ 0.602 µM). It also gave an MIC (anti-bacterial activity) ([1]; strain EFM 15-4) of 0.5 µg/mL (≈ 1.2 µM), an MIC (anti-bacterial activity) ([1]; strain EFM 15-5) of 0.25 µg/mL (≈ 0.602 µM) and an MIC (anti-bacterial activity) ([1]; strain EFM 15-6) of 0.5 µg/mL (≈ 1.2 µM). The MIC (anti-bacterial activity) ([2]; strain EFA 15-1) was 2 µg/mL (≈ 4.81 µM), the MIC (anti-bacterial activity) ([2]; strain EFA 15-2) was 2 µg/mL (≈ 4.81 µM) and the MIC (anti-bacterial activity) ([2]; strain EFA 15-3) was 0.5 µg/mL (≈ 1.2 µM). It also gave an MIC (anti-bacterial activity) ([2]; strain EFA 15-4) of 2 µg/mL (≈ 4.81 µM), an MIC (anti-bacterial activity) ([2]; strain EFA 15-5) of 2 µg/mL (≈ 4.81 µM) and an MIC (anti-bacterial activity) ([2]; strain EFA 15-6) of 2 µg/mL (≈ 4.81 µM). The MIC (anti-bacterial activity) ([2]; strain EFA 15-9) was 2 µg/mL (≈ 4.81 µM), the MIC (anti-bacterial activity) ([3]; strain MRSE 15-1) was 0.125 µg/mL (≈ 0.301 µM) and the MIC (anti-bacterial activity) ([3]; strain MRSE 15-2) was 0.5 µg/mL (≈ 1.2 µM). It also gave an MIC (anti-bacterial activity) ([3]; strain MRSE 15-3) of 0.5 µg/mL (≈ 1.2 µM), an MIC (anti-bacterial activity) ([3]; strain MRSE 15-7) of 0.5 µg/mL (≈ 1.2 µM) and an MIC (anti-bacterial activity) ([4]; strain ECO+ 15-1) of 32 µg/mL (≈ 77 µM). For the same compound, the MIC (anti-bacterial activity) ([4]; strain ECO+ 15-2) was 32 µg/mL (≈ 77 µM), the MIC (anti-bacterial activity) ([4]; strain ECO+ 15-3) was 32 µg/mL (≈ 77 µM) and the MIC (anti-bacterial activity) ([4]; strain ECO+ 15-4) was 32 µg/mL (≈ 77 µM). For the same compound, the MIC (anti-bacterial activity) ([4]; strain ECO− 15-1) was 32 µg/mL (≈ 77 µM), the MIC (anti-bacterial activity) ([4]; strain ECO− 15-2) was 32 µg/mL (≈ 77 µM) and the MIC (anti-bacterial activity) ([4]; strain ECO− 15-3) was 32 µg/mL (≈ 77 µM). The MIC (anti-bacterial activity) ([4]; strain ECO− 15-4) was 32 µg/mL (≈ 77 µM), the MIC (anti-bacterial activity) ([5]; strain MSSE 15-3) was 0.125 µg/mL (≈ 0.301 µM) and the MIC (anti-bacterial activity) ([5]; strain MSSE 15-4) was 0.5 µg/mL (≈ 1.2 µM). For the same compound, the MIC (anti-bacterial activity) ([5]; strain MSSE 15-5) was 0.5 µg/mL (≈ 1.2 µM), the MIC (anti-bacterial activity) ([5]; strain MSSE 15-6) was 0.5 µg/mL (≈ 1.2 µM) and the MIC (anti-bacterial activity) ([6]; strain SPN 16-2) was 0.25 µg/mL (≈ 0.602 µM). It also gave an MIC (anti-bacterial activity) ([6]; strain SPN 16-4) of 2 µg/mL (≈ 4.81 µM), an MIC (anti-bacterial activity) ([7]; strain BCA 14-1) of 0.5 µg/mL (≈ 1.2 µM) and an MIC (anti-bacterial activity) ([7]; strain BCA 14-4) of 0.5 µg/mL (≈ 1.2 µM). The MIC (anti-bacterial activity) ([7]; strain BCA 14-5) was 0.25 µg/mL (≈ 0.602 µM), the MIC (anti-bacterial activity) ([7]; strain BCA 14-6) was 0.5 µg/mL (≈ 1.2 µM) and the MIC (anti-bacterial activity) ([7]; strain BCA 14-7) was 0.25 µg/mL (≈ 0.602 µM). The MIC (anti-bacterial activity) ([7]; strain BCA 14-8) was 0.5 µg/mL (≈ 1.2 µM), the MIC (anti-bacterial activity) ([7]; strain BCA 14-10) was 0.25 µg/mL (≈ 0.602 µM) and the MIC (anti-bacterial activity) ([8]; strain MRSA 15-1) was 0.25 µg/mL (≈ 0.602 µM). It also gave an MIC (anti-bacterial activity) ([8]; strain MRSA 15-2) of 0.25 µg/mL (≈ 0.602 µM), an MIC (anti-bacterial activity) ([8]; strain MRSA 15-3) of 0.25 µg/mL (≈ 0.602 µM) and an MIC (anti-bacterial activity) ([8]; strain MRSA 15-4) of 0.25 µg/mL (≈ 0.602 µM). It also gave an MIC (anti-bacterial activity) ([9]; strain MSSA 15-3) of 0.25 µg/mL (≈ 0.602 µM), an MIC (anti-bacterial activity) ([9]; strain MSSA 15-4) of 0.25 µg/mL (≈ 0.602 µM) and an MIC (anti-bacterial activity) ([9]; strain MSSA 15-5) of 0.25 µg/mL (≈ 0.602 µM). The MIC (anti-bacterial activity) ([9]; strain MSSA 15-6) was 0.25 µg/mL (≈ 0.602 µM) and the inhibition at 30 µM [10] was 18%.
Compound `O=CN(O)C[C@@H](CC1CCCC1)C(=O)N1CC2(CC2)C[C@H]1C(=O)Nc1ccncn1` [Example 27, (S)-5-((R)-3-cyclopentyl-2-((N-hydroxyformamido)methyl)propionyl)-N-(pyrimidin-4-yl)-5-spiro[2.4]heptane-6-carboxamide] has an MIC (anti-bacterial activity) ([1]; strain EFM 15-1) of 0.25 µg/mL (≈ 0.602 µM), an MIC (anti-bacterial activity) ([1]; strain EFM 15-2) of 1 µg/mL (≈ 2.41 µM) and an MIC (anti-bacterial activity) ([1]; strain EFM 15-3) of 0.25 µg/mL (≈ 0.602 µM). The MIC (anti-bacterial activity) ([1]; strain EFM 15-4) was 0.5 µg/mL (≈ 1.2 µM), the MIC (anti-bacterial activity) ([1]; strain EFM 15-5) was 0.25 µg/mL (≈ 0.602 µM) and the MIC (anti-bacterial activity) ([1]; strain EFM 15-6) was 0.5 µg/mL (≈ 1.2 µM). The MIC (anti-bacterial activity) ([2]; strain EFA 15-1) was 2 µg/mL (≈ 4.81 µM), the MIC (anti-bacterial activity) ([2]; strain EFA 15-2) was 2 µg/mL (≈ 4.81 µM) and the MIC (anti-bacterial activity) ([2]; strain EFA 15-3) was 2 µg/mL (≈ 4.81 µM). The MIC (anti-bacterial activity) ([2]; strain EFA 15-4) was 2 µg/mL (≈ 4.81 µM), the MIC (anti-bacterial activity) ([2]; strain EFA 15-5) was 2 µg/mL (≈ 4.81 µM) and the MIC (anti-bacterial activity) ([2]; strain EFA 15-6) was 2 µg/mL (≈ 4.81 µM). It also gave an MIC (anti-bacterial activity) ([2]; strain EFA 15-9) of 2 µg/mL (≈ 4.81 µM), an MIC (anti-bacterial activity) ([3]; strain MRSE 15-1) of 0.06 µg/mL (≈ 0.144 µM) and an MIC (anti-bacterial activity) ([3]; strain MRSE 15-2) of 0.125 µg/mL (≈ 0.301 µM). The MIC (anti-bacterial activity) ([3]; strain MRSE 15-3) was 0.125 µg/mL (≈ 0.301 µM), the MIC (anti-bacterial activity) ([3]; strain MRSE 15-7) was 0.125 µg/mL (≈ 0.301 µM) and the MIC (anti-bacterial activity) ([4]; strain ECO+ 15-1) was 16 µg/mL (≈ 38.5 µM). The MIC (anti-bacterial activity) ([4]; strain ECO+ 15-2) was 32 µg/mL (≈ 77 µM), the MIC (anti-bacterial activity) ([4]; strain ECO+ 15-3) was 32 µg/mL (≈ 77 µM) and the MIC (anti-bacterial activity) ([4]; strain ECO+ 15-4) was 32 µg/mL (≈ 77 µM). It also gave an MIC (anti-bacterial activity) ([4]; strain ECO− 15-1) of 32 µg/mL (≈ 77 µM), an MIC (anti-bacterial activity) ([4]; strain ECO− 15-2) of 32 µg/mL (≈ 77 µM) and an MIC (anti-bacterial activity) ([4]; strain ECO− 15-3) of 32 µg/mL (≈ 77 µM). The MIC (anti-bacterial activity) ([4]; strain ECO− 15-4) was 32 µg/mL (≈ 77 µM), the MIC (anti-bacterial activity) ([5]; strain MSSE 15-3) was 0.125 µg/mL (≈ 0.301 µM) and the MIC (anti-bacterial activity) ([5]; strain MSSE 15-4) was 0.125 µg/mL (≈ 0.301 µM). The MIC (anti-bacterial activity) ([5]; strain MSSE 15-5) was 0.125 µg/mL (≈ 0.301 µM), the MIC (anti-bacterial activity) ([5]; strain MSSE 15-6) was 0.125 µg/mL (≈ 0.301 µM) and the MIC (anti-bacterial activity) ([6]; strain SPN 16-2) was 0.25 µg/mL (≈ 0.602 µM). For the same compound, the MIC (anti-bacterial activity) ([6]; strain SPN 16-4) was 2 µg/mL (≈ 4.81 µM), the Anti-bacterial activity (MIC), strain BCA 14-10 ([7]; clinical isolate BCA 14-10) was 0.5 µg/mL and the MIC (anti-bacterial activity) ([7]; strain BCA 14-1) was 2 µg/mL (≈ 4.81 µM). For the same compound, the MIC (anti-bacterial activity) ([7]; strain BCA 14-4) was 2 µg/mL (≈ 4.81 µM), the MIC (anti-bacterial activity) ([7]; strain BCA 14-5) was 0.25 µg/mL (≈ 0.602 µM) and the MIC (anti-bacterial activity) ([7]; strain BCA 14-6) was 0.125 µg/mL (≈ 0.301 µM). For the same compound, the MIC (anti-bacterial activity) ([7]; strain BCA 14-7) was 0.25 µg/mL (≈ 0.602 µM), the MIC (anti-bacterial activity) ([7]; strain BCA 14-8) was 0.5 µg/mL (≈ 1.2 µM) and the MIC (anti-bacterial activity) ([8]; strain MRSA 15-1) was 0.125 µg/mL (≈ 0.301 µM). The MIC (anti-bacterial activity) ([8]; strain MRSA 15-2) was 0.125 µg/mL (≈ 0.301 µM), the MIC (anti-bacterial activity) ([8]; strain MRSA 15-3) was 0.125 µg/mL (≈ 0.301 µM) and the MIC (anti-bacterial activity) ([8]; strain MRSA 15-4) was 0.125 µg/mL (≈ 0.301 µM). It also gave an MIC (anti-bacterial activity) ([9]; strain MSSA 15-3) of 0.125 µg/mL (≈ 0.301 µM), an MIC (anti-bacterial activity) ([9]; strain MSSA 15-4) of 0.125 µg/mL (≈ 0.301 µM) and an MIC (anti-bacterial activity) ([9]; strain MSSA 15-5) of 0.125 µg/mL (≈ 0.301 µM). For the same compound, the MIC (anti-bacterial activity) ([9]; strain MSSA 15-6) was 0.125 µg/mL (≈ 0.301 µM) and the inhibition at 30 µM [10] was 17%.

Source: patent publication US10738028B2, “Spiro three-membered ring, spiro five-membered ring peptide deformylase inhibitor and use thereof in antibacteria and anti-tumor” (priority 2016, dated 2020)
